The structures appear in SMILES notation. Some results are limits rather than exact numbers.

The target in the assay is T1, human FXR (NR1H4) (Homo sapiens, UniProt Q96RI1).
T1 sequence (Q96RI1 1-486): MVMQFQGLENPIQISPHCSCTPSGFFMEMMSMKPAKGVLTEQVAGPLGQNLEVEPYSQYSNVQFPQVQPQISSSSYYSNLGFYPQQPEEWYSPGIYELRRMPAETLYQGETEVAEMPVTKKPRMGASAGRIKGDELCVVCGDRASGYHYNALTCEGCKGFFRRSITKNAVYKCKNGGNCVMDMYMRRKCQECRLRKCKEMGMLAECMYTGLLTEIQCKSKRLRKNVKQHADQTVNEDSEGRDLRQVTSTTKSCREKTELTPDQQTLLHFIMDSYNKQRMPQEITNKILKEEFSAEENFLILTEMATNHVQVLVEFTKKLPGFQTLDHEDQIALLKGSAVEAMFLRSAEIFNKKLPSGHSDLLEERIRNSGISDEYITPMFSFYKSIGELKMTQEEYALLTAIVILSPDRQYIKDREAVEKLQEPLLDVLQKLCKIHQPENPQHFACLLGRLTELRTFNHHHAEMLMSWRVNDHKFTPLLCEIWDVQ
Put plainly: Human FXR (NR1H4) Assay (Gal4 promoter driven luciferase reporter, Indigo Bioscience kit IB00601). It counts as cell-based. As to conditions: FXR agonistic potency; CHO reporter cells expressing human NR1H4; 22 hours incubation; luciferase readout. An excerpt:
Determination of a ligand mediated Gal4 promoter driven transactivation to quantify ligand binding mediated activation of FXR. FXR Reporter Assay kit purchased from Indigo Bioscience (Catalogue number: IB00601) to determine the potency and efficacy of compound developed by Enanta that can induce FXR activation. The principle application of this reporter assay system is to quantify functional activity of human FXR. The assay utilizes non-human mammalian cells, CHO (Chinese hamster ovary) cells engineered to express human NR1H4 protein (referred to as FXR). Reporter cells also incorporate the cDNA encoding beetle luciferase which catalyzes the substrates and yields photon emission. Luminescence intensity of the reaction is quantified using a plate-reading luminometer, Envision. Reporter Cells include the luciferase reporter gene functionally linked to an FXR responsive promoter. Thus, quantifying changes in luciferase expression in the treated reporter cells provides a sensitive surrogate measure of the changes in FXR activity. […] The assay is according to the manufacturer's instructions. In brief, the assay was performed in white, 96 well plates using final volume of 100 uL containing cells with different doses of compounds. Retrieve Reporter Cells from −80° C. storage. Perform a rapid thaw of the frozen cells by transferring a 10 ml volume of 37° C. cell recovery medium into the tube of frozen cells. Recap the tube of Reporter Cells and immediately place it in a 37° C. water bath for 5-10 minutes. Retrieve the tube of Reporter Cell Suspension from the water bath. Sanitize the outside surface of the tube with a 70% alcohol swab, and then transfer it into the cell culture hood. Dispense 90 μl of cell suspension into each well of the 96-well Assay Plate. Transfer the plate into 37° C. incubator, allowing the cells adherent to the bottom of the well. Dilute compounds in Dilution Plate (DP), and administrate to cells at Assay Plate (AP). DMSO content of the samples was kept at 0.2%. Cells were incubated for additional 22 hours before luciferase activities were measured. Thirty minutes before intending to quantify FXR activity, remove Detection Substrate and Detection Buffer from the refrigerator and place them in a low-light area so that they may equilibrate to room temperature. Remove the plate's lid and discard all media contents by ejecting it into an appropriate waste container. Gently tap the inverted plate onto a clean absorbent paper towel to remove residual droplets. Cells will remain tightly adhered to well bottoms. Add 100 μl of luciferase detection reagent to each well of the assay plate. Allow the assay plate to rest at room temperature for at least 5 minutes following the addition of LDR. Set the instrument (Envision) to perform a single 5 second “plate shake” prior to reading the first assay well. Read time may be 0.5 second (500 mSec) per well.
A general note: In a reporter assay the amount or activity of a reporter protein is the signal.
`CCC(CC)Oc1ccc(S(=O)(=O)NC(=O)OC[C@@H](C)[C@H]2CC[C@H]3[C@@H]4[C@H](O)[C@H](CC)[C@@H]5C[C@H](O)CC[C@]5(C)[C@H]4CC[C@]23C)cc1` [Example 19]: the EC50 (in general, the midpoint of the concentration-response curve) is 10 to 100 nM.
As to `CC[C@H]1[C@@H](O)[C@@H]2[C@H](CC[C@]3(C)[C@@H]([C@H](C)COC(=O)NS(=O)(=O)c4ccc5c(c4)CCC(C)(C)O5)CC[C@@H]23)[C@@]2(C)CC[C@H](O)C[C@@H]12` [Example 33], the EC50 was below 1 nM.
Regarding `CC[C@H]1[C@@H](O)[C@@H]2[C@H](CC[C@]3(C)[C@@H]([C@H](C)COC(=O)NS(=O)(=O)c4ccc(OC(F)(F)F)cc4)CC[C@@H]23)[C@@]2(C)CC[C@@H](O)C[C@@H]12` [Example 23], the concentration for a half-maximal effect (EC50) was above 100 nM.
Consider `CC[C@H]1[C@@H](O)[C@@H]2[C@H](CC[C@]3(C)[C@@H]([C@H](C)COC(=O)NS(=O)(=O)c4ccc(OC(C)C)cc4)CC[C@@H]23)[C@@]2(C)CC[C@@H](O)C[C@@H]12` [Example 4], for which the EC50 is below 1 nM.
With `CC[C@H]1[C@@H](O)[C@@H]2[C@H](CC[C@]3(C)[C@@H]([C@H](C)COC(=O)NS(=O)(=O)c4ccc(OC)cc4)CC[C@@H]23)[C@@]2(C)CC[C@@H](O)C[C@@H]12` [Example 27], the EC50 was 1 to 10 nM.
In turn, `CC[C@H]1[C@@H](O)[C@@H]2[C@H](CC[C@]3(C)[C@@H]([C@H](C)COC(=O)NS(=O)(=O)c4ccc5c(c4)CCC(C)(C)O5)CC[C@@H]23)[C@@]2(C)CCC(=O)C[C@@H]12` [Example 34] displayed an EC50 below 1 nM.
With `CC[C@H]1[C@@H](O)[C@@H]2[C@H](CC[C@]3(C)[C@@H]([C@H](C)COC(=O)NS(=O)(=O)c4ccc(O)cc4)CC[C@@H]23)[C@@]2(C)CC[C@@H](O)C[C@@H]12` [Example 26], the EC50 is above 100 nM.

These data come from patent publication US10472386B2, “Bile acid derivatives as FXR agonists and methods of use thereof” (priority 2017, dated 2019).
